Our source for the MIC99 and MBC values is ChEMBL document CHEMBL5385915 (J Med Chem, 2024).

In brackets after ≈: the same amount, converted by molar mass.

The term MIC99 denotes the lowest concentration that inhibits either 99% of growth or 99% of the strains tested, depending on the study. The MBC is the lowest tested concentration that kills the bacteria rather than only halting them.

One assay relates to Mycobacterium tuberculosis variant bovis. The assay can be described thus: Antimycobacterial activity against Mycobacterium bovis BCG assessed as reduction in microbial growth incubated for 7 days by resazurin dye based assay. The class given is functional. As to conditions: 168 h, time 7 day.
Turning to `CC(C)NC[C@@H]1C[C@H](c2ccc(OC(F)(F)F)cc2)N1Cc1ccccc1OC(F)(F)F` (racemic), the MIC99 stood at 26 µM.

For the compound `FC(F)(F)c1ccc(C2CCN(C[C@@H]3C[C@H](c4ccccc4)N3Cc3ccccc3Br)CC2)cc1` (racemic), the MIC99 worked out at 60 µM.

Regarding `Clc1cc(Cl)cc([C@H]2C[C@@H](CN3CCCC3)N2Cc2ccccc2Br)c1` (racemic), the MIC99 amounted to 11 µM.

Consider `CC(C)NC[C@@H]1C[C@H](c2ccccc2)N1Cc1ccccc1Br` (racemic), for which the MIC99 was 51 µM.

For the compound `Brc1ccccc1CN1[C@H](CN2CCCC2)C[C@@H]1c1ccccc1` (racemic), the MIC99 was 65 µM.

As to `FC(F)(F)c1cc([C@H]2C[C@@H](CN3CCCC3)N2Cc2ccccc2Br)cc(C(F)(F)F)c1` (racemic), the MIC99 came to 22 µM.

As for `COCCNC[C@@H]1C[C@H](c2ccc(OC(F)(F)F)cc2)N1Cc1ccccc1OC(F)(F)F` (racemic), the MIC99 was 30 µM.

Consider `CC(C)NC[C@@H]1C[C@H](c2ccccc2)N1Cc1ccccc1OC(F)(F)F` (racemic), for which the MIC99 was 45 µM.

Consider `CN(C)C[C@@H]1C[C@H](c2cc(Br)cc(Br)c2)N1Cc1ccccc1Br` (racemic), for which the MIC99 worked out at 48 µM.

As for `COc1ccc([C@H]2C[C@@H](CN3CCCC3)N2Cc2ccccc2Br)cc1` (racemic), the MIC99 came to 42.6 µM.

For `C#CCNC[C@@H]1C[C@H](c2cc(Br)cc(Br)c2)N1Cc1ccccc1Br` (racemic), the MIC99 is 54 µM.

For `FC(F)(F)Oc1ccc(C2CCN(C[C@@H]3C[C@H](c4ccccc4)N3Cc3ccccc3Br)CC2)cc1` (racemic), the MIC99 was 56 µM.

For `CC(C)NC[C@@H]1C[C@H](c2ccc(OC(F)(F)F)cc2)N1Cc1ccccc1Br` (racemic), the MIC99 came out at 24 µM.

For another assay the test system is unchanged. Put plainly: Bactericidal activity against Mycobacterium bovis BCG assessed as inhibition of bacterial growth incubated for 7 days by resazurin dye based assay. The class given is functional. The settings on record: 168 h, time 7 day. In general terms: Resazurin is reduced to fluorescent resorufin, in cell work by metabolically active cells.
`FC(F)(F)c1cc([C@H]2C[C@@H](CN3CCCC3)N2Cc2ccccc2Br)cc(C(F)(F)F)c1` (racemic): the MBC worked out at 12 µM (≈ 6.26 µg/mL).

As to `FC(F)(F)Oc1ccc([C@H]2C[C@@H](CN3CCCC3)N2Cc2ccccc2OC(F)(F)F)cc1` (racemic), the MBC stood at 12 µM (≈ 5.69 µg/mL).
